{
  "source": "paper PMC5696599",
  "about": "“Confirming a Role for α9nAChRs and SK Potassium Channels in Type II Hair Cells of the Turtle Posterior Crista” (Frontiers in Cellular Neuroscience, 2017)",
  "target": "T1, α9*nAChR (alpha9-containing nicotinic ACh receptor) (Trachemys scripta, UniProt Q3L0X1)",
  "T1 construct": "gene CHRNA9; native receptor in type II hair cells, intact split-epithelial posterior crista; read-out through coupled SK potassium current",
  "T1 sequence (Q3L0X1 28-490)": "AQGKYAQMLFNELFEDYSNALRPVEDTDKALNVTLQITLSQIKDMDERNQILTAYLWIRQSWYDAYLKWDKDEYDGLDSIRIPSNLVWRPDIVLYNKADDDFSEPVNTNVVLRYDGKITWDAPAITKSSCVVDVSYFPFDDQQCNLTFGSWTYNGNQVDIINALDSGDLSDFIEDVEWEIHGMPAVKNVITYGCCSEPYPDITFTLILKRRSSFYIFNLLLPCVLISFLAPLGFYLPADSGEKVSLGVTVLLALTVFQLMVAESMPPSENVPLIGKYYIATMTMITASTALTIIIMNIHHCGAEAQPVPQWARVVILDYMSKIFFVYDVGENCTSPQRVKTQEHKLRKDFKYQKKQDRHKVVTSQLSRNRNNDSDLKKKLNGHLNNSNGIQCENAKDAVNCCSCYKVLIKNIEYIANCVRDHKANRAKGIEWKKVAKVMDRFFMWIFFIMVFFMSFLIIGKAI",
  "T1 sequence (UPI001552A461 25-505 partner)": "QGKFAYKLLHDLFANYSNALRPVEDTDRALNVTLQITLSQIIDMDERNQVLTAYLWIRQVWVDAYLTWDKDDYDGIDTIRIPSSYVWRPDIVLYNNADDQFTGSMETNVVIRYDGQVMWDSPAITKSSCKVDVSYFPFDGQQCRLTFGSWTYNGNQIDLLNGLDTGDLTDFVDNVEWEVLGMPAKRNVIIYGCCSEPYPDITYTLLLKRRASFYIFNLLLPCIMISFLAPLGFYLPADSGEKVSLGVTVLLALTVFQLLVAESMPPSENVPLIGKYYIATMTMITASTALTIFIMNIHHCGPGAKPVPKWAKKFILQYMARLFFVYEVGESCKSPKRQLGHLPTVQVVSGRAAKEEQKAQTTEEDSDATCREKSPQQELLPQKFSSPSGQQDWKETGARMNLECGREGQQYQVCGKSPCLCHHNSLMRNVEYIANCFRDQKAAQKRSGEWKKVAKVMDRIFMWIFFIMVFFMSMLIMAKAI",
  "assay": "whole-cell patch clamp of type II hair cells, peak ACh-sensitive outward current, Hill fit",
  "assay_type": "cell-based",
  "conditions": "agonist; coupled SK current read-out at −17 mV; intact epithelium with acetylcholinesterase and diffusion barriers; pH 7.6; 21–25°C",
  "data": [
    {"compound": "CC(=O)OCC[N+](C)(C)C", "note": "[acetylcholine]", "values": [
      {"measurement": "EC50", "result": 76, "unit": "µM"}
    ]}
  ]
}
